The text below walks through data of patent US20050239780A1, “Tetrahydropyran derivative” (priority 2002, published 2005).

Test [1] has as its system apo B-related lipoprotein secretion in Hep G2 cells. Kind of test: Measurement of apo B-related lipoprotein secretion in liver cells (Hep G2, enzyme immunoassay). Conditions: culture supernatant. Format: cell-based, human. As to the method: 1. Measurement of Apo B-Related Lipoprotein Secretion in Liver Cells
Hep G2 cells were cultured in a 96-well plate using a 10% fetal bovine serum-containing Dulbecco's modified Eagle's medium (to be referred to as “10% FBS-containing DMEM” hereinafter). The medium was exchanged with a 10% FBS-containing DMEM that contained a DMSO solution of the test compound (DMSO final concentration 0.1%), and the cells were further incubated therein for 18 hours to obtain the culture supernatant. The culture supernatant obtained from a 10% FBS-containing DMEM that contained DMSO alone (final concentration 0.1%) was used as the control. The apo B-related lipoprotein produced in the culture supernatant was determined through an enzyme immunoassay in the manner mentioned below.
A solution of anti-human apolipoprotein B monoclonal antibody (4 μg/ml) was dispensed in 100 μl portions into a 96-well immunoassay plate and kept at 4° C. for 18 hours. Each well was washed three times with a phosphate buffer to which had been added 0.1% Tween 20 (to be referred to as “PBS-T” hereinafter), and 300 μl of a 4-fold diluted immune blocker “Block Ace” was added thereto and kept at 37° C. for 1 hour. The aforementioned culture supernatant was added to it, and kept at 37° C. for 3 hours. This was washed three times with PBS-T, and then 100 μl of a solution of caprine anti-human apolipoprotein B polyclonal antibody (2,000-fold dilution) was added to it and kept at 37° C. for 1 hour. This was washed three times with PBS-T, and then 100 μl of a solution of alkaline phosphatase-labeled anti-caprine IgG antibody (2,000-fold dilution) was added thereto and kept at 37° C. for 1 hour. This was washed four times with PBS-T, once with PBS and then with a carbonate buffer (pH 9.5), and 100 μl of a solution of an alkaline phosphatase substrate was added thereto and kept at room temperature for 5 minutes. A 50 μl portion of 0.2 M sodium hydroxide was added to it to stop the reaction, and the absorbance at 405 nm was measured. From the calibration curve based on a standard, human low-density lipoprotein, the absolute amount of apo B-related lipoprotein was obtained.

Test [2] concerns plasma lipid in KK-Ay mice. In words: Pharmacological test in KK-Ay mice. Format: in vivo, male KK-Ay mice. Conditions: oral once a day for 7 days, relative to control group. The procedure: The influence of test compounds on plasma lipid in vivo was investigated with KK-Ay mice. A 0.5% methyl cellulose suspension containing a test compound was forcedly orally administered to male KK-Ay mice once a day for continuos 7 days. After the final administration, the mice were fed with nothing, and after 6 hours, their blood was collected under anesthetization with diethyl ether. Using the automatic analyzer, Hitachi's Model 7250, the total cholesterol, HDL cholesterol and triglyceride in plasma were measured. Non-HDL cholesterol was obtained by subtracting HDL cholesterol from total cholesterol. The plasma lipid lowering effect of the test compound was expressed in percentage relative to the control group.

In test [3] the test system is plasma lipid in high-cholesterol feed-loaded rats. Kind of test: Pharmacological test on high-cholesterol feed-loaded rats. Format: in vivo. Conditions: high-cholesterol feed-loaded male SD rats, oral once a day for 7 days, relative to control group; for ED50: Rattus norvegicus, 168 h, read-out: ED50 non-HDL cholesterol lowering effect. The procedure:
3. Pharmacological Test on High-Cholesterol Feed-Loaded Rats
The influence of test compounds on plasma lipid in vivo was investigated with high-cholesterol feed-loaded rats. A 0.5% methyl cellulose suspension containing a test compound was forcedly orally administered to male SD rats loaded with high-cholesterol feed (1.5% cholesterol, 10% coconut oil, 0.5% cholic acid), once a day for continuous 7 days. After the final administration, the rats were fed with nothing, and after 6 hours, their blood was collected under anesthetization with diethyl ether. Using an automatic analyzer, Hitachi's Model 7250, the total cholesterol, HDL cholesterol and triglyceride in plasma were measured. Non-HDL cholesterol was obtained by subtracting HDL cholesterol from total cholesterol. The non-HDL cholesterol lowering effect of the test compound, relative to the control group, was represented by ED50.

Test [4] has as its system VLDL secretion in vivo in rats. In words: Measurement of blood cholesterol and triglyceride in rats (VLDL secretion, Triton WR-1339). Conditions: male SD rats, oral, Triton WR-1339 400 mg/kg i.v. after 1 hour, blood after 4 hours; for ED50: Rattus norvegicus. As to the method: 2. Measurement of Blood Cholesterol and Triglyceride in Rats
The influence of test compounds on VLDL secretion in vivo in rats was investigated. A 0.5% methyl cellulose suspension containing a test compound was orally administered to male SD rats. After 1 hour, a physiological saline solution of Triton WR-1339 (corresponding to 400 mg/kg) was injected through the caudal vein. After 4 hours, their blood was collected under anesthetization with diethyl ether. The total cholesterol and triglyceride in blood were measured by the use of “Cholesterol C Test Wako” and “Triglyceride G Test Wako” (both from Wako Pure Chemical Industries), respectively. The rats orally administered with the 0.5% methyl cellulose solution and then intravenously injected with physiological saline were used as a normal group, and those orally administered with the 0.5% methyl cellulose solution and then intravenously injected with physiological saline of Triton WR-1339 were used as a control group. The difference in the total cholesterol (TC) or triglyceride (TG) in the serum between the control group and the normal group was defined as the amount of secretion per hour, and the lowering effect in the amount of secretion of the test compound was represented by ED50.

Setting [5] is: Homo sapiens, HepG2, 18 hours incubation.
[6] abbreviates: read-out: ED50 TC (total cholesterol secretion lowering effect).
[7] abbreviates: read-out: ED50 TG (triglyceride secretion lowering effect).

Like-named read-outs stand apart in the source and are kept apart here.

`Cc1nc2c(c(C)c1CCC(=O)O)c1ccccc1n2Cc1ccc([C@@H](C(=O)N2CCN(c3ccccn3)CC2)C2CCOCC2)cc1` [Example 17, (−)-3-(2,4-Dimethyl-9-{4-[(S)-2-oxo-2-(4-pyridin-2-ylpiperazin-1-yl)-1-(tetrahydro-2H-pyran-4-yl)ethyl]benzyl}-9H-pyrido[2,3-b]indol-3-yl)propanoic acid] showed an IC50 in test [1] (setting [5]) of 4.8 nM. Also, in test [2] (dose 3 mg/kg), the “Lowering rate TG” value worked out at 86%. In test [2] (dose 3 mg/kg), the “Lowering rate non-HDL” value is given as 85%. For the same compound, the ED50 is 0.14 mg/kg in test [3], 0.74 mg/kg in test [4] (setting [6]) and 0.39 mg/kg in test [4] (setting [7]).

Take `CCCN1CCN(C(=O)[C@H](c2ccc(Cn3c4ccccc4c4c(C)c(CCC(=O)O)c(C)nc43)cc2)C2CCOCC2)CC1` [Example 18, (+)-3-(2,4-Dimethyl-9-{4-[(S)-2-oxo-2-(4-propylpiperazin-1-yl)-1-(tetrahydro-2H-pyran-4-yl)ethyl]benzyl}-9H-pyrido[2,3-b]indol-3-yl)propanoic acid]: half-maximal inhibition in test [1] (setting [5]) (IC50) was put at 3 nM. Further, the “Lowering rate TG” value in test [2] (dose 3 mg/kg) is recorded as 87%. Further, the “Lowering rate non-HDL” value in test [2] (dose 3 mg/kg) worked out at 85%. Further, the ED50 in test [3] stood at 0.2 mg/kg; in test [4] (setting [6]), 0.5 mg/kg; in test [4] (setting [7]), 0.52 mg/kg.

`Cc1nc2c(c(C)c1CCC(=O)O)c1ccccc1n2Cc1ccc([C@@H](C(=O)NCc2ccccc2)C2CCOCC2)cc1` [Example 19, (−)-3-(9-{4-[(S)-(benzylcarbamoyl)(tetrahydro-2H-pyran-4-yl)methyl]benzyl}-2,4-dimethyl-9H-pyrido[2,3-b]indol-3-yl)propanoic acid]: in test [1] (setting [5]), the IC50 worked out at 1.7 nM. For the same compound, in test [2] (dose 3 mg/kg), the “Lowering rate TG” value is 91%. Further, the “Lowering rate non-HDL” value in test [2] (dose 3 mg/kg) amounted to 95%. For the same compound, the ED50 was determined as 0.059 mg/kg in test [3], 0.17 mg/kg in test [4] (setting [6]) and 0.24 mg/kg in test [4] (setting [7]).

Take `Cc1nc2c(c(C)c1CCC(=O)O)c1cc(F)ccc1n2Cc1ccc([C@@H](C(=O)NCc2ccccc2)C2CCOCC2)cc1` [Example 23]: in test [2] (dose 3 mg/kg), the “Lowering rate TG” value is reported as 96% and the “Lowering rate non-HDL” value was 91%. Also, the “ED50 non-HDL cholesterol lowering effect” value in test [3] was found to be 0.063 mg/kg. In test [4], the “ED50 TC (total cholesterol secretion lowering effect)” value stood at 0.27 mg/kg and the “ED50 TG (triglyceride secretion lowering effect)” value was determined as 0.19 mg/kg.

As for `Cc1nc2c(c(C)c1CCC(=O)O)c1ccc(F)cc1n2Cc1ccc([C@@H](C(=O)NCc2ccccc2)C2CCOCC2)cc1` [Example 24], in test [2] (dose 3 mg/kg), the “Lowering rate TG” value turned out to be 95% and the “Lowering rate non-HDL” value worked out at 96%. The “ED50 non-HDL cholesterol lowering effect” value in test [3] is 0.040 mg/kg. Also, in test [4], the “ED50 TC (total cholesterol secretion lowering effect)” value amounted to 0.21 mg/kg and the “ED50 TG (triglyceride secretion lowering effect)” value is 0.22 mg/kg.

The compound `Cc1nc2c(c(C)c1CCC(=O)O)c1ccccc1n2Cc1ccc([C@@H](C(=O)N(C)C)C2CCOCC2)cc1` [Example 37, 3-(2,4-dimethyl-9-{4-[(S)-(dimethylcarbamoyl)(tetrahydro-2H-pyran-4-yl)methyl]benzyl}-9H-pyrido[2,3-b]indol-3-yl)propanoic acid] gave an IC50 in test [1] (setting [5]) of 29 nM. Also, the “Lowering rate TG” value in test [2] (dose 3 mg/kg) came out at 57%. In addition, the “Lowering rate non-HDL” value in test [2] (dose 3 mg/kg) came out at 62%. In addition, the ED50 in test [4] (setting [6]) and in test [4] (setting [7]) was 0.71 mg/kg throughout.

Compound `Cc1nc2c(c(C)c1CCC(=O)O)c1ccccc1n2Cc1ccc([C@@H](C(=O)N2CC=CCC2)C2CCOCC2)cc1` [Example 40] gave an IC50 in test [1] (18 hours incubation) of 12 nM. In addition, in test [2] (dose 3 mg/kg), the “Lowering rate TG” value was determined as 81% and the “Lowering rate non-HDL” value is on record as 74%. The “ED50 non-HDL cholesterol lowering effect” value in test [3] is reported as <0.1 mg/kg. In test [4], the “ED50 TC (total cholesterol secretion lowering effect)” value stood at 0.47 mg/kg and the “ED50 TG (triglyceride secretion lowering effect)” value is reported as 0.28 mg/kg.

Turning to `Cc1nc2c(c(C)c1CCC(=O)O)c1ccccc1n2Cc1ccc([C@@H](C(=O)N2CCC(c3ccccc3)CC2)C2CCOCC2)cc1` [Example 45], inhibition in test [1] (18 hours incubation) was half-maximal at 28 nM (IC50). Besides, in test [2] (dose 3 mg/kg), the “Lowering rate TG” value was 92% and the “Lowering rate non-HDL” value came out at 86%. Also, the “ED50 non-HDL cholesterol lowering effect” value in test [3] amounted to 0.41 mg/kg.

As for `CCCCCN1CCN(C(=O)[C@H](c2ccc(Cn3c4ccccc4c4c(C)c(CCC(=O)O)c(C)nc43)cc2)C2CCOCC2)CC1` [Example 50], half-maximal inhibition in test [1] (18 hours incubation) (IC50) required 3.2 nM. In test [2] (dose 3 mg/kg), the “Lowering rate TG” value was 94% and the “Lowering rate non-HDL” value amounted to 90%. In addition, the “ED50 non-HDL cholesterol lowering effect” value in test [3] is 0.19 mg/kg. In test [4], the “ED50 TC (total cholesterol secretion lowering effect)” value turned out to be 0.48 mg/kg and the “ED50 TG (triglyceride secretion lowering effect)” value is listed as 0.41 mg/kg.

As for `COCCCN1CCN(C(=O)[C@H](c2ccc(Cn3c4ccccc4c4c(C)c(CCC(=O)O)c(C)nc43)cc2)C2CCOCC2)CC1` [Example 56], half-maximal inhibition in test [1] (18 hours incubation) (IC50) required 7.2 nM. For the same compound, in test [2] (dose 3 mg/kg), the “Lowering rate TG” value is given as 41% and the “Lowering rate non-HDL” value stood at 63%. Besides, the “ED50 non-HDL cholesterol lowering effect” value in test [3] is on record as 1.1 mg/kg. For the same compound, in test [4], the “ED50 TC (total cholesterol secretion lowering effect)” value amounted to 0.9 mg/kg and the “ED50 TG (triglyceride secretion lowering effect)” value turned out to be 1.3 mg/kg.

`Cc1nc2c(c(C)c1CCC(=O)O)c1ccccc1n2Cc1ccc([C@@H](C(=O)N2CCN(C3CCC3)CC2)C2CCOCC2)cc1` [Example 57] showed an IC50 in test [1] (18 hours incubation) of 8 nM. Further, in test [2] (dose 3 mg/kg), the “Lowering rate TG” value came out at 89% and the “Lowering rate non-HDL” value amounted to 86%. In addition, in test [3], the “ED50 non-HDL cholesterol lowering effect” value was 0.88 mg/kg. In addition, in test [4], the “ED50 TC (total cholesterol secretion lowering effect)” value was found to be 0.74 mg/kg and the “ED50 TG (triglyceride secretion lowering effect)” value is listed as 0.56 mg/kg.

In turn, `Cc1nc2c(c(C)c1CCC(=O)O)c1ccccc1n2Cc1ccc([C@@H](C(=O)NCc2cccc(F)c2)C2CCOCC2)cc1` [Example 117] came in with an IC50 in test [1] (18 hours incubation) of 2.2 nM. In test [2] (dose 3 mg/kg), the “Lowering rate TG” value was 98% and the “Lowering rate non-HDL” value worked out at 98%. The “ED50 non-HDL cholesterol lowering effect” value in test [3] is given as 0.032 mg/kg.

Regarding `Cc1cc(C)c2c3ccccc3n(Cc3ccc([C@@H](C(=O)N[C@@H](CO)c4ccccc4)C4CCCC4)cc3)c2n1` [Implitapide, reference compound], in test [2] (dose 10 mg/kg), the “Lowering rate TG” value stood at 15% and the “Lowering rate non-HDL” value was found to be 14%. Besides, the “ED50 non-HDL cholesterol lowering effect” value in test [3] was 1.0 mg/kg. In test [4], the “ED50 TC (total cholesterol secretion lowering effect)” value was 1.0 mg/kg and the “ED50 TG (triglyceride secretion lowering effect)” value was determined as 1.1 mg/kg.
